ChEMBL document CHEMBL2074090, “Characterization of the transport properties of cloned rat multidrug resistance-associated protein 3 (MRP3)” (J Biol Chem, 1999)

Assays:
[1] = biological target: T1, MRP3 (ABCC3, ATP-binding cassette sub-family C member 3) (Rattus norvegicus, UniProt O88563); test: TP_TRANSPORTER: inhibition of E217betaG uptake (E217betaG: 0.1 uM, MTX: 1000 uM) in membrane vesicles from MRP3-expressing HeLa cells; assay type: functional, cell membranes, Membrane vesicle; design: scale not given: the % may be the effect or the level left; settings: human, probe E217betaG, read-out: Activity
[2] = biological target: ATP-binding cassette sub-family C member 3 (Rattus norvegicus, UniProt O88563); test: (§1) TP_TRANSPORTER: uptake in membrane vesicle from Mrp3-expressing LLC-PK1 cells; assay type: functional, cell membranes; settings: pig
[3] = biological target: T1, MRP3 (ABCC3, ATP-binding cassette sub-family C member 3); test: TP_TRANSPORTER: inhibition of E217betaG uptake (E217betaG: 0.1 uM, MTX: 1000 uM) in membrane vesicles from MRP3-expressing LLC-PK1 cells; assay type: functional, cell membranes, Membrane vesicle; design: scale not given: the % may be the effect or the level left; settings: pig, probe E217betaG, read-out: Activity
[4] = biological target: T1, MRP3 (ABCC3, ATP-binding cassette sub-family C member 3); test: TP_TRANSPORTER: inhibition of E217betaG uptake (E217betaG: 0.1 uM, LTC4: 2.5 uM) in membrane vesicle from Mrp3-expressing LLC-PK1 cells; assay type: functional, cell membranes; design: scale not given: the % may be the effect or the level left; settings: pig, membrane vesicles from Mrp3-expressing LLC-PK1 cells, probe E217betaG; read-out: Activity
[5] = biological target: T1, MRP3 (ABCC3, ATP-binding cassette sub-family C member 3); test: TP_TRANSPORTER: inhibition of E217betaG uptake (E217betaG: 0.1 uM, alpha-naphthyl beta-D-glucuronide: 200 uM) in membrane vesicle from Mrp3-expressing LLC-PK1 cells; assay type: functional, cell membranes; design: scale not given: the % may be the effect or the level left; settings: pig, membrane vesicles from Mrp3-expressing LLC-PK1 cells, probe E217betaG; read-out: Activity
[6] = biological target: T1, MRP3 (ABCC3, ATP-binding cassette sub-family C member 3); test: TP_TRANSPORTER: inhibition of E217betaG uptake (E217betaG: 0.1 uM, 4-methylumbeliferone glucuronide: 500 uM) in membrane vesicle from Mrp3-expressing LLC-PK1 cells; assay type: functional, cell membranes; design: scale not given: the % may be the effect or the level left; settings: pig, membrane vesicles from Mrp3-expressing LLC-PK1 cells, probe E217betaG; read-out: Activity
[7] = biological target: T1, MRP3 (ABCC3, ATP-binding cassette sub-family C member 3); test: TP_TRANSPORTER: inhibition of E217betaG uptake (E217betaG: 0.1 uM, E3040 glucuronide: 50 uM) in membrane vesicles from MRP3-expressing HeLa cells; assay type: functional, cell membranes, Membrane vesicle; design: scale not given: the % may be the effect or the level left; settings: human, probe E217betaG, read-out: Activity
[8] = biological target: T1, MRP3 (ABCC3, ATP-binding cassette sub-family C member 3); test: TP_TRANSPORTER: inhibition of E217betaG uptake (E217betaG: 0.1 uM, E1S: 500 uM) in membrane vesicle from Mrp3-expressing LLC-PK1 cells; assay type: functional, cell membranes; design: scale not given: the % may be the effect or the level left; settings: pig, membrane vesicles from Mrp3-expressing LLC-PK1 cells, probe E217betaG; read-out: Activity
[9] = biological target: T1, MRP3 (ABCC3, ATP-binding cassette sub-family C member 3); test: TP_TRANSPORTER: inhibition of E217betaG uptake (E217betaG: 0.1 uM, DNP-SG: 500 uM) in membrane vesicles from MRP3-expressing LLC-PK1 cells; assay type: functional, cell membranes, Membrane vesicle; design: scale not given: the % may be the effect or the level left; settings: pig, probe E217betaG, read-out: Activity
[10] = substrate: C[C@]12CC[C@@H]3c4ccc(O)cc4CC[C@H]3[C@@H]1CC[C@@H]2O[C@@H]1O[C@H](C(=O)O)[C@@H](O)[C@H](O)[C@H]1O; test: as §1; assay type: functional, cell membranes

## CN(Cc1cnc2nc(N)nc(N)c2n1)c1ccc(C(=O)N[C@@H](CCC(=O)O)C(=O)O)cc1 [METHOTREXATE]
[1]
  activity at 1000 µM: 18.5%
[2]
  Activity: substrate [+]
[3]
  activity at 1000 µM: 10.7%

## CCCCC/C=C\C\C=C/C=C/C=C/[C@@H](SC[C@@H](NC(=O)CC[C@H](N)C(=O)O)C(=O)NCC(=O)O)[C@@H](O)CCCC(=O)O [LEUKOTRIEN C4]
[4]
  activity at 2.5 µM: 57%

## O=C(O)[C@H]1O[C@@H](Oc2cccc3ccccc23)[C@H](O)[C@@H](O)[C@@H]1O
[5]
  activity at 200 µM: 23.6%

## O=C(O)[C@H]1O[C@@H](OCc2cc(=O)oc3cc(O)ccc23)[C@H](O)[C@@H](O)[C@@H]1O
[6]
  activity at 500 µM: 14.1%

## CNc1nc2c(Cc3cccnc3)c(C)c(O[C@@H]3O[C@H](C(=O)O)[C@@H](O)[C@H](O)[C@H]3O)c(C)c2s1 [E3040 GLUCURONIDE]
[2]
  Activity: substrate [+]
[7]
  activity at 50 µM: 11.1%

## C[C@]12CC[C@@H]3c4ccc(OS(=O)(=O)O)cc4CC[C@H]3[C@@H]1CCC2=O [ESTRONE SULFURIC ACID]
[8]
  activity at 500 µM: 33.3%

## N[C@@H](CCC(=O)N[C@H](CSc1ccc([N+](=O)[O-])cc1[N+](=O)[O-])C(=O)NCC(=O)O)C(=O)O
[9]
  activity at 500 µM: 14.4%

B1: ATP-binding cassette sub-family C member 3 (Rattus norvegicus) (protein)
chain: MDRLCGSGELGSKFWDSNLTVYTNTPDLTPCFQNSLLAWVPCIYLWAALPCYLFYLRHHRLGYIVLSCLSRLKTALGVLLWCISWVDLFYSFHGLVHGSSPAPVFFITPLLVGITMLLATLLIQYERLRGVRSSGVLIIFWLLCVICAIIPFRSKILLALAEGKILDPFRFTTFYIYFALVLCAFILSCFQEKPPLFSPENLDTNPCPEASAGFFSRLSFWWFTKLAILGYRRPLEDSDLWSLSEEDCSHKVVQRLLEAWQKQQTQASGPQTAALEPKIAGEDEVLLKARPKTKKPSFLRALVRTFTSSLLMGACFKLIQDLSPSSTHSCSASSSGLFRPHGPYWWGFLLAGLMFVSSTMQTLILHQHYHCIFVMALRIRTAIIGVIYRKALTITNSVKREYTVGEMVNLMSVDAQRFMDVSPFINLLWSAPLQVILAIYFLWQILGPSALAGVAVIVLLIPLNGAVSMKMKTYQVQQMKFKDSRIKLMSEILNGIKVLKLYAWEPTFLEQVEGIRQGELQLLRKGAYLQAISTFIWVCTPFMVTLITLGVYVCVDKNNVLDAEKAFVSLSLFNILKIPLNLLPQLISGMTQTSVSLKRIQDFLNQDELDPQCVERKTISPGRAITIHNGTFSWSKDLPPTLHSINIQIPKGALVAVVGPVGCGKSSLVSALLGEMEKLEGAVSVKGSVAYVPQQAWIQNCTLQENVLFGQPMNPKRYQQALETCALLADLDVLPGGDQTEIGEKGINLSGGQRQRVSLARAVYSDANIFLLDDPLSAVDSHVAKHIFDQVIGPEGVLAGKTRVLVTHGISFLPQTDFIIVLADGQITEMGHYSELLQHDGSFANFLRNYAPDENQEANEGVLQHANEEVLLLEDTLSTHTDLTDTEPAIYEVRKQFMREMSSLSSEGEGQNRPVLKRYTSSLEKEVPATQTKETGALIKEEIAETGNVKLSVYWDYAKSVGLCTTLFICLLYAGQNAVAIGANVWLSAWTNDVEEHGQQNNTSVRLGVYATLGILQGLLVMLSAFTMVVGAIQAARLLHTALLHNQIRAPQSFFDTTPSGRILNRFSKDIYVIHEVLAPTILMLFNSFYTSISTIVVIVASTPLFCVVVLPLAVFYGFVQRFYVATSRQLKRLESVSRSPIFSHFSETVTGTSVIRAYGRVQDFKVLSDAKVDSNQKTTYPYIASNRWLGVHVEFVGNCVVLFSALFAVIGRNSLNPGLVGLSVSYALQVTLSLNWMIRTLSDLESNIIAVERVKEYSKTETEAPWVLESNRAPEGWPRSGVVEFRNYSVRYRPGLELVLKNLTLHVQGGEKVGIVGRTGAGKSSMTLCLFRILEAAEGEIFIDGLNVAHIGLHDLRSQLTIIPQDPILFSGTLRMNLDPFGRYSDEDIWRTLELSHLSAFVSSQPTGLDFQCSEGGDNLSVGQRQLVCLARALLRKSRVLVLDEATAAIDLETDDLIQGTIRTQFEDCTVLTIAHRLNTIMDYNRVLVLDKGVVAEFDSPVNLIAAGGIFYGMAKDAGLA
[10]
  Km: 110 µM
